Assays:
[1] = target: T1, 11-beta-hydroxysteroid dehydrogenase type 2 (Homo sapiens, UniProt P80365); experiment: Inhibition of human 11beta HSD2
T1 sequence (P80365 whole entry): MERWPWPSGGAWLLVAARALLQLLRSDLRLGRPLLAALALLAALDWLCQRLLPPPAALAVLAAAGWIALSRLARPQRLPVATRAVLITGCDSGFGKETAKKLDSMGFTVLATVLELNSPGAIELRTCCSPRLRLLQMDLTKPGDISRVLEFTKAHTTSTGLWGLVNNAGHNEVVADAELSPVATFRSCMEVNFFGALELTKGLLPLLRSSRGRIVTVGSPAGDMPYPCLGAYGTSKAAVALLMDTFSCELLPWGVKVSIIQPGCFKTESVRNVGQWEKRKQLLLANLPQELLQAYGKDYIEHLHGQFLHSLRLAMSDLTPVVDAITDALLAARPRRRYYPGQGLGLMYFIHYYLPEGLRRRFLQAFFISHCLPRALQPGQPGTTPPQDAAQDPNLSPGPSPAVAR

[2] = target: 11-beta-hydroxysteroid dehydrogenase 1 (Homo sapiens, UniProt P28845); experiment: Inhibition of human 11beta HSD1 by SPA assay
Chain of 11-beta-hydroxysteroid dehydrogenase 1 (Homo sapiens, UniProt P28845) (P28845 whole entry): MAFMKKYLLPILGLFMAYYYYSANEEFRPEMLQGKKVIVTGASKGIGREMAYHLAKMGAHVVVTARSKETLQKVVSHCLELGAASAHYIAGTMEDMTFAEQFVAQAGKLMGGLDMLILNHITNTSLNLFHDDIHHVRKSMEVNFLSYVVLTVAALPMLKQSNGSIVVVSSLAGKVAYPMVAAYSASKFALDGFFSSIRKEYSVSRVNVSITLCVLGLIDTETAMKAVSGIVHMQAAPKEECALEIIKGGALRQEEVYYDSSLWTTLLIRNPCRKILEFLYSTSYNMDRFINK

[3] = target: T2, 11-beta-hydroxysteroid dehydrogenase type 2 (Mus musculus, UniProt P51661); experiment: Inhibition of mouse 11beta HSD2
T2 sequence (P51661 whole entry): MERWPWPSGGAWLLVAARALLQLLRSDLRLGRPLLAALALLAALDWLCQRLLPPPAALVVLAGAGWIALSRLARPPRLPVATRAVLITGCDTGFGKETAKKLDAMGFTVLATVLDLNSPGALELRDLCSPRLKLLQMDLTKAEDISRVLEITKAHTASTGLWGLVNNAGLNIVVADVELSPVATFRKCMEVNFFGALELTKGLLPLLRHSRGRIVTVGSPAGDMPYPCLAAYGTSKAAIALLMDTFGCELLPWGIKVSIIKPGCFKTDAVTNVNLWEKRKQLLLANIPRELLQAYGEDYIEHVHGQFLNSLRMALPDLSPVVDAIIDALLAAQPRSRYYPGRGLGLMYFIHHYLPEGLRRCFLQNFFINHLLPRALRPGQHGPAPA

[4] = test system: Mus musculus; experiment: Inhibition of [3H]cortisone to [3H]cortisol conversion in mouse at 10 mg/kg, po administered as single dose after 1 hr; assay type: functional
[5] = test system: Mus musculus; experiment: Inhibition of [3H]cortisone to [3H]cortisol conversion in mouse at 10 mg/kg, po administered as single dose after 4 hrs; assay type: functional
[6] = target: 11-beta-hydroxysteroid dehydrogenase 1 (Mus musculus, UniProt P50172); experiment: Inhibition of mouse 11beta HSD1 by SPA assay
Chain of 11-beta-hydroxysteroid dehydrogenase 1 (Mus musculus, UniProt P50172) (P50172 whole entry): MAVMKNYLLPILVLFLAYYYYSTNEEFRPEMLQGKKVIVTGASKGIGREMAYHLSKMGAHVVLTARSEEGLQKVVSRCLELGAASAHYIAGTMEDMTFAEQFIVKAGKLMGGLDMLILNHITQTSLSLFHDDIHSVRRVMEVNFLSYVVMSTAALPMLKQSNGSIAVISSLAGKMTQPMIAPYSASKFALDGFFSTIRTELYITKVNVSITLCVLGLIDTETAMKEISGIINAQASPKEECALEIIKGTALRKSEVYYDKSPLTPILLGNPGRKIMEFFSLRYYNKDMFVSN

[7] = target: T3, Nuclear receptor subfamily 1 group I member 2 (Homo sapiens, UniProt O75469); experiment: Agonist activity at human PXR; assay type: functional
T3 sequence (O75469 whole entry): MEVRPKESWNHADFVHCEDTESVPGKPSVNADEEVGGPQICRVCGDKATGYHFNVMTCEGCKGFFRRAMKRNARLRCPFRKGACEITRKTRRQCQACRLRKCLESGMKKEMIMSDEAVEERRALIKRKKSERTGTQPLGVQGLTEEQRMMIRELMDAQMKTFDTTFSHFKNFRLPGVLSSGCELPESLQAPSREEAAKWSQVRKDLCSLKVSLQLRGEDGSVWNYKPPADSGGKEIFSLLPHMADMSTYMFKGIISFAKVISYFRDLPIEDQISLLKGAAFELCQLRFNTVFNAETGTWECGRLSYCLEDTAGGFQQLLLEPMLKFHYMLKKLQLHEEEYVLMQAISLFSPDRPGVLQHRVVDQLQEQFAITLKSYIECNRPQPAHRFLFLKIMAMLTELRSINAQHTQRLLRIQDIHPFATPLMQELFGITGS

[8] = target: T3, Nuclear receptor subfamily 1 group I member 2; experiment: Agonist activity at human PXR at 10 uM; assay type: functional

SMILES	IC50 [1] [nM]	IC50 [2] [nM]	IC50 [3] [nM]	IC50 [6] [nM]	EC50 [7] [nM]	Activity [8] [%]	inhibition in vivo at 10 mg/kg [4] [%]	inhibition in vivo at 10 mg/kg [5] [%]
Cn1c(-c2ccc(O)cc2)nnc1C1(c2ccc(Cl)cc2)CCC1	> 4000	0.34	> 4000	19	–	–	17	10
Cn1c(-c2ccc(Cl)cc2Cl)nnc1C1(c2ccc(Cl)cc2)CCC1	> 4000	1	> 4000	13	–	–	–	–
Cn1c(-c2ccc(-n3cccc3)cc2)nnc1C1(c2ccc(Cl)cc2)CCC1	> 4000	3	> 4000	5.4	–	–	41	28
Cn1c(-c2ccc(-c3ccccc3)cc2)nnc1C1(c2ccc(Cl)cc2)CCC1	> 4000	11	> 4000	4	–	–	86	90
Cn1c(-c2ccc(Cl)cc2)nnc1C1(c2ccc(Cl)cc2)CCC1	> 4000	2.7	> 4000	43	–	–	20	14
COc1ccc(-c2nnc(C3(c4ccc(Cl)cc4)CCC3)n2C)cc1F	> 4000	3	> 4000	42	–	–	10	-1
Cn1c(-c2ccc(Cc3ccccc3)cc2)nnc1C1(c2ccc(Cl)cc2)CCC1	> 4000	68	> 4000	18	–	–	20	-4
Cn1c(-c2cccc(O)c2)nnc1C1(c2ccc(Cl)cc2)CCC1	> 4000	1	> 4000	19	–	–	–	–
Cn1c(-c2ccc(O)c(F)c2)nnc1C1(c2ccc(Cl)cc2)CCC1	> 4000	2	> 4000	61	–	–	3	6
Cn1c(-c2ccc(C(C)(C)C)cc2)nnc1C1(c2ccc(Cl)cc2)CCC1	> 4000	14	> 4000	1.8	–	–	–	–
Cc1cn(-c2ccc(-c3nnc(C4(c5ccc(Cl)cc5)CCC4)n3C)c(Cl)c2)c(C)n1	–	6.9	> 4000	7.2	–	–	–	–
Cc1ccccc1-c1nnc(C2(c3ccc(Cl)cc3)CCC2)n1C	> 4000	5	> 4000	21	–	–	9	1
Cn1c(-c2ccc(-n3ccnc3)cc2)nnc1C1(c2ccc(Cl)cc2)CCC1	> 4000	3.5	> 4000	46	–	–	79	44
Cn1c(-c2ccccc2F)nnc1C1(c2ccc(Cl)cc2)CCC1	> 4000	2	> 4000	21	–	–	–	–
Cn1c(-c2ccccc2)nnc1C1(c2ccc(Cl)cc2)CCC1	> 4000	1.7	> 4000	52	–	–	47	29
Cn1c(-c2cccc(OC(F)(F)F)c2)nnc1C1(c2ccc(Cl)cc2)CCC1	> 4000	2.2	> 4000	36	–	–	–	–
Cn1c(-c2ccc(C(F)(F)F)cc2)nnc1C1(c2ccc(Cl)cc2)CCC1	> 4000	9.3	> 4000	26	–	–	–	–
Cn1c(-c2ccc(-c3nccs3)cc2)nnc1C1(c2ccc(Cl)cc2)CCC1	> 4000	44	> 4000	3.1	–	–	92	67
Clc1ccc(C2(c3nnc4n3CCCCCC4)CCC2)cc1	> 4000	1.3	> 4000	–	–	–	–	–
Cn1c(-c2ccccc2O)nnc1C1(c2ccc(Cl)cc2)CCC1	> 4000	1.8	> 4000	17	–	–	-2	-2
Cn1c(-c2cccc(Cl)c2)nnc1C1(c2ccc(Cl)cc2)CCC1	> 4000	1	> 4000	34	–	–	24	12
COc1ccccc1-c1nnc(C2(c3ccc(Cl)cc3)CCC2)n1C	> 4000	2.7	> 4000	7.8	–	–	28	12
Cn1c(-c2cccc(F)c2)nnc1C1(c2ccc(Cl)cc2)CCC1	> 4000	2.2	> 4000	163	–	–	–	–
Cn1c(-c2ccccc2)nnc1C12CC3CC(CC(C3)C1)C2 [FIG 1]	> 4000	37	> 4000	109	–	–	85	47
CSc1nccn1-c1ccc(-c2nnc(C3(c4ccc(Cl)cc4)CCC3)n2C)c(Cl)c1	–	3.9	> 4000	3.9	–	–	–	–

Continued, in another order:

IC50 [1] [nM]	IC50 [2] [nM]	IC50 [3] [nM]	IC50 [6] [nM]	EC50 [7] [nM]	Activity [8] [%]	SMILES	inhibition in vivo at 10 mg/kg [4] [%]	inhibition in vivo at 10 mg/kg [5] [%]
> 4000	3.8	> 4000	8.2	–	–	Cn1c(-c2ccc(I)cc2)nnc1C1(c2ccc(Cl)cc2)CCC1	–	–
> 4000	2.3	> 4000	4.1	–	–	Cn1c(-c2ccccc2OC(F)(F)F)nnc1C1(c2ccc(Cl)cc2)CCC1	59	44
> 4000	10	> 4000	2.2	–	–	Cn1c(-c2ccc(OC3CC3)cc2)nnc1C1(c2ccc(Cl)cc2)CCC1	95	95
> 3000	–	> 10000	–	–	–	C1CCc2nnc(C34CC5CC(CC(C5)C3)C4)n2CC1	31	21
> 4000	26	> 4000	3.7	–	–	Cn1c(-c2ccc(Oc3ccccc3)cc2)nnc1C1(c2ccc(Cl)cc2)CCC1	–	–
> 4000	13	> 4000	6.9	–	–	Cn1c(-c2ccc(OC(F)(F)F)cc2)nnc1C1(c2ccc(Cl)cc2)CCC1	64	27
> 4000	0.28	> 4000	3.5	–	–	Cn1c(-c2ccccc2Cl)nnc1C1(c2ccc(Cl)cc2)CCC1	86	73
–	2.6	> 4000	9.6	> 25000	22	Cc1nccn1-c1ccc(-c2nnc(C3(c4ccc(Cl)cc4)CCC3)n2C)c(Cl)c1	–	–
> 4000	1.5	> 4000	101	–	–	Cn1c(-c2ccc(F)cc2)nnc1C1(c2ccc(Cl)cc2)CCC1	–	–
> 4000	11	> 4000	9.1	–	–	Cn1c(-c2ccc(-c3ccc(F)cc3)cc2)nnc1C1(c2ccc(Cl)cc2)CCC1	–	–
–	12	> 4000	57	–	–	Cc1nc2ccccc2n1-c1ccc(-c2nnc(C3(c4ccc(Cl)cc4)CCC3)n2C)c(Cl)c1	–	–
> 4000	2	> 4000	4	–	–	Cn1c(-c2ccccc2C(F)(F)F)nnc1C1(c2ccc(Cl)cc2)CCC1	73	63
> 4000	4.3	> 4000	56	–	–	Cn1c(-c2cccc(-c3ccccc3)c2)nnc1C1(c2ccc(Cl)cc2)CCC1	-2	-2

From ChEMBL document CHEMBL1150311, “4-Methyl-5-phenyl triazoles as selective inhibitors of 11beta-hydroxysteroid dehydrogenase type I” (Bioorg Med Chem Lett, 2008)
